Measurements reported in the supplement of paper PMC10307832.

Compound: COc1ccc(-c2ccc3c(N4CCOC[C@@H]4C)nc(N4CCOC[C@@H]4C)nc3n2)cc1CO [AZD8055]
Assay: relative viability (nuclei count vs DMSO), 5 days (fraction); higher = more cells survive
In short: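 MetaXpress counted nuclei in 4× images of lung cancer cell lines that had been fixed, permeabilised and Hoechst-stained in one step. Before that, cells in 1536-well plates were kept overnight at 37 °C, pinned with five √10-spaced library-drug doses on vehicle-anchored plates, and cultured 5 days without medium change. Viability takes treated-well nuclei over vehicle-well nuclei and uses the median across plates. Plates were accepted only at control CV below 25% and at least one doubling.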

| Cell Line | relative viability (0.01 µM) | relative viability (0.03162 µM) | relative viability (0.1 µM) | relative viability (0.3162 µM) | relative viability (1 µM) |
| --- | --- | --- | --- | --- | --- |
| COR-L 105 | 1.04 | 0.947 | 0.64 | 0.378 | 0.435 |
| LK-2 | 0.84 | 0.641 | 0.508 | 0.24 | 0.195 |
| NCI-H727 | 1.17 | 0.953 | 0.695 | 0.544 | 0.412 |
| RERF-LC-KJ | 1.05 | 0.942 | 0.822 | 0.458 | 0.414 |
| NCI-H2023 | 0.901 | 0.618 | 0.362 | 0.163 | 0.153 |
| NCI-H322M | 0.933 | 0.968 | 0.741 | 0.64 | 0.601 |
| NCI-H1666 | 1.1 | 1.07 | 0.925 | 0.802 | 0.675 |
| NCI-H1648 | 0.642 | 0.745 | 0.542 | 0.271 | 0.326 |
| NCI-H2087 | 1.14 | 0.908 | 0.936 | 0.458 | 0.349 |
| LU99A | 1.07 | 0.54 | 0.461 | 0.261 | 0.253 |
| HCC-366 | 1.11 | 0.963 | 0.907 | 0.698 | 0.354 |
| EKVX | 1.09 | 1.08 | 0.818 | 0.602 | 0.432 |
| NCI-H522 | 0.965 | 1 | 0.723 | 0.519 | 0.719 |
| NCI-H1755 | 1.02 | 0.841 | 0.825 | 0.537 | 0.569 |
| NCI-H647 | 0.981 | 0.717 | 0.51 | 0.332 | 0.204 |
| LC-2-ad | 1.04 | 1.04 | 0.922 | 0.621 | 0.529 |
| NCI-H1793 | 0.669 | 0.443 | 0.287 | 0.212 | 0.222 |
| HCC-827 | 1.13 | 1.1 | 1.11 | 0.876 | 0.768 |
| HCC-78 | 1.03 | 0.837 | 0.615 | 0.395 | 0.457 |

| Cell Line | relative viability (0.01 µM) | relative viability (0.03162 µM) | relative viability (0.1 µM) | relative viability (0.3162 µM) | relative viability (1 µM) |
| --- | --- | --- | --- | --- | --- |
| NCI-H2085 | 1 | 0.987 | 0.723 | 0.43 | 0.42 |
| PC-14 | 1.23 | 1.09 | 0.715 | 0.286 | 0.178 |
| NCI-H2342 | 1.19 | 0.881 | 0.735 | 0.476 | 0.572 |
| A-427 | 1.05 | 0.871 | 0.893 | 0.574 | 0.586 |
| H3255 | 1.11 | 0.948 | 0.778 | 0.436 | 0.349 |
| HCC-44 | 0.99 | 1.03 | 0.844 | 0.552 | 0.473 |
| NCI-H1734 | 1.08 | 0.732 | 0.646 | 0.385 | 0.276 |
| NCI-H2228 | 1.29 | 0.757 | 0.378 | 0.201 | 0.213 |
| ABC-1 | 0.948 | 1.08 | 0.757 | 0.332 | 0.413 |
| COR-L23 | 1.35 | 0.921 | 0.862 | 0.28 | 0.207 |
| NCI-H661 | 1.03 | 0.992 | 0.842 | 0.521 | 0.537 |
| NCI-H1993 | 0.791 | 0.72 | 0.577 | 0.545 | 0.666 |
| NCI-H1437 | 1.05 | 1.02 | 0.895 | 0.448 | 0.318 |
| UMC-11 | 0.942 | 0.711 | 0.607 | 0.345 | 0.322 |
| 201T | 0.955 | 0.987 | 0.907 | 0.635 | 0.487 |
| NCI-H358 | 1.03 | 1.15 | 0.855 | 0.323 | 0.263 |
| ChaGo-K-1 | 1.02 | 0.998 | 0.952 | 0.858 | 0.722 |
| NCI-H1650 | 0.923 | 1 | 0.802 | 0.498 | 0.419 |
| LOU-NH91 | 0.931 | 0.934 | 0.724 | 0.633 | 0.624 |
